Where two headings read alike, the source gives them in different places.
Legend:
Assay type in all cases: physicochemical
[1] = Bulk density (USP 616, Method 1); details: crystalline powder
Procedure: (§1) The bulk density and tapped density are measured by methods known to the skilled person, such as those described in the USP (“United States Pharmacopeia”) monograph, e.g., USP 27, Vol. 1, pp. 226 to 227, May 1, 2009-Apr. 30, 2010, Bulk Density 616, Method 1, Tapped Density 616, Method 2. The measurement of the grain size distribution is effected according to the protocols of European Pharmacopeia, Supplement 6.6, Chapter 2.9.31 “Particle Size Analysis by Laser Light Diffraction” pp. 5103-5107.

[2] = Tapped density (USP 616, Method 2); details: crystalline powder
Procedure: as §1

[3] = Grain size distribution by laser light diffraction (Ph. Eur. 2.9.31)
Procedure: as §1
(§2) The crystals are described by their particle size distribution as observed by laser diffraction, their optical micrograph image and their aspect ratio which can be determined, for example, by means of image analysis using the Malvern Symex FPIA 3000.

[4] = Crystal shape by image analysis (Malvern Sysmex FPIA 3000): aspect ratio, circularity; details: for Aspect ratio (width/length; w/l): main fraction of the crystals
Excerpt: as §2
The aspect ratio (width/length; w/l) is expressed by a proportion. In the case of the 5-ASA according to the invention having a particularly high bulk density, the main fraction of the crystals has an aspect ratio around 0.5. From this, a width to length ratio of w/l of 1:2 can be calculated. In the 5-ASA having a high bulk density according to the invention, the aspect ratio is around 0.36, thus corresponding to a width to length ratio of 1:3. The different aspect ratios of the 5-ASA crystal fractions according to the invention having high and particularly high bulk densities bring about the different bulk and tapped densities and the differently broad grain size distributions seen in the laser diffractograms according to FIG. 10 and FIG. 11.
The measured value of circularity describes the deviation of the crystal shape from ideal spherical shape. A value of 1 corresponds to an ideal sphere.

[5] = listed as 5-ASA coarse crystals

| Bulk density [1] | Bulk density [1, 5] | Tapped density [2] | Tapped density [2, 5] | Grain size distribution X(10) [3] | Grain size distribution X(50) [3] | Grain size distribution X(90) [3] | Grain size distribution X(10) [3, 5] | Grain size distribution X(50) [3, 5] | Grain size distribution X(90) [3, 5] | Bulk density ([1]; listed as 5-ASA fine crystals) | Tapped density ([2]; listed as 5-ASA fine crystals) | Grain size distribution X(10) ([3]; listed as 5-ASA fine crystals) | Grain size distribution X(50) ([3]; listed as 5-ASA fine crystals) | Grain size distribution X(90) ([3]; listed as 5-ASA fine crystals) | Circularity ([4]; 1 = ideal sphere) | Aspect ratio (width/length; w/l) ([4]; listed as 5-ASA according to the invention having a particularly high bulk density) | Aspect ratio (width/length; w/l) ([4]; listed as 5-ASA having a high bulk density according to the invention) | Structure (SMILES) |
| --- | --- | --- | --- | --- | --- | --- | --- | --- | --- | --- | --- | --- | --- | --- | --- | --- | --- | --- |
| 250 to 270 g/L | 250 to 270 g/L | 450 to 480 g/L | 450 to 480 g/L | X (10) = 10-15 μm | X (50) = 50-60 μm | X (90) = 200-220 μm | X(10) = 10-15 μm | 50-60 μm | 200-220 μm | – | – | – | – | – | – | – | – | Nc1ccc(O)c(C(=O)O)c1 [5-ASA coarse acicular crystals, 5-aminosalicylic acid] |
| 150 to 190 g/L | – | 300 to 390 g/L | – | X (10) = 2-6 μm | X (50) = 8-20 μm | X (90) = 25-50 μm | – | – | – | 150 to 190 g/L | 300 to 390 g/L | X(10) = 2-6 μm | 8-20 μm | 25-50 μm | – | – | – | Nc1ccc(O)c(C(=O)O)c1 [5-ASA fine acicular crystals, 5-aminosalicylic acid] |
| 400 to 500 g/L | – | 600 to 800 g/L | – | X(10) = 7-10 μm | 25-35 μm | 80-90 μm | – | – | – | – | – | – | – | – | ~0.8 | around 0.5 | – | Nc1ccc(O)c(C(=O)O)c1 [Example 1, 5-aminosalicylic acid] |
| 300 to 400 g/L | – | 510 to 700 g/L | – | X(10) = 3-5 μm | 15-45 μm | 90-100 μm | – | – | – | – | – | – | – | – | – | – | around 0.36 | Nc1ccc(O)c(C(=O)O)c1 [Example 2, 5-aminosalicylic acid] |
